Experimental data as given in PubChem BioAssay AID192 (DTP/NCI, 2004).
Where “and” joins values, the source holds several entries; their conditions need not be identical. Equal values may be shown once. Inconclusive results and toxic doses are left out.

Test system: BDF1 mice, B16 melanoma ip, median survival T/C
Assay: NCI In Vivo Anticancer Drug Screen. Data for tumor model B16 Melanoma (intraperitoneal) in B6D2F1 (BDF1) mice
Settings: endpoint: median survival time, higher = longer survival
Outline: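 Each result divides a survival or tumor-size measurement in the compound-treated group by the same measurement in the vehicle group.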

[1] = dose: 50.0 mg/kg/injection, schedule: Q01DX009 (ip), vehicle: Klucel (hydroxypropylcellulose) (HPC)
[2] = dose: 100.0 mg/kg/injection, schedule: Q01DX009 (ip), vehicle: Klucel (hydroxypropylcellulose) (HPC)
[3] = dose: 200.0 mg/kg/injection, schedule: Q01DX009 (ip), vehicle: Klucel (hydroxypropylcellulose) (HPC)
[4] = dose: 25.0 mg/kg/injection, schedule: Q01DX009 (ip), vehicle: Klucel (hydroxypropylcellulose) (HPC)
[5] = dose: 3.12 mg/kg/injection, schedule: Q01DX009 (ip), vehicle: saline
[6] = dose: 100.0 mg/kg/injection, schedule: Q04DX003 (ip), vehicle: Klucel (hydroxypropylcellulose) (HPC)
[7] = dose: 200.0 mg/kg/injection, schedule: Q04DX003 (ip), vehicle: Klucel (hydroxypropylcellulose) (HPC)
[8] = dose: 6.25 mg/kg/injection, schedule: Q01DX009 (ip), vehicle: Klucel (hydroxypropylcellulose) (HPC)
[9] = dose: 12.5 mg/kg/injection, schedule: Q01DX009 (ip), vehicle: Klucel (hydroxypropylcellulose) (HPC)
[10] = dose: 400.0 mg/kg/injection, schedule: Q01DX009 (ip), vehicle: Klucel (hydroxypropylcellulose) (HPC)
[11] = dose: 6.25 mg/kg/injection, schedule: Q01DX009 (ip), vehicle: saline

`C[C@]12CC[C@@H]3c4ccc(O)cc4CC[C@H]3[C@@H]1C[C@@H](O)[C@@H]2O` was tested, and the T/C [1] was 102 % of control, the T/C [2] was 100 % of control and the T/C [3] was 90 % of control.

With `Clc1ccc(NC2=NCCCS2)c2ccccc12` the T/C [4] was 105 % of control, the T/C [1] was 92 % of control and the T/C [2] was 95 % of control.

In the case of `CCc1ccc2c(c1)N(CC(C)CN(C)C)c1ccccc1S2` (configuration not stated), the T/C (dose: 0.78 mg/kg/injection, schedule: Q01DX009 (ip), vehicle: saline) is reported as 105 % of control, the T/C (dose: 1.56 mg/kg/injection, schedule: Q01DX009 (ip), vehicle: saline) is reported as 87 % of control and 111 % of control and the T/C [5] is reported as 98 % of control and 108 % of control.

For `CC(=O)OCC(=O)[C@@]12OC(C)(C)O[C@@H]1C[C@H]1[C@@H]3CC(C=O)=C4C=C(OCCCl)CC[C@]4(C)[C@@]3(F)[C@@H](O)C[C@@]12C`, the T/C (dose: 25.0 mg/kg/injection, schedule: Q04DX003 (ip), vehicle: saline with Tween-80) was 111 % of control, the T/C (dose: 50.0 mg/kg/injection, schedule: Q04DX003 (ip), vehicle: saline with Tween-80) was 112 % of control and the T/C (dose: 100.0 mg/kg/injection, schedule: Q04DX003 (ip), vehicle: saline with Tween-80) was 115 % of control. The T/C (dose: 200.0 mg/kg/injection, schedule: Q04DX003 (ip), vehicle: saline with Tween-80) was 110 % of control and the T/C (dose: 400.0 mg/kg/injection, schedule: Q04DX003 (ip), vehicle: saline with Tween-80) was 109 % of control.

With `C#CC(OC(=O)NC1CCCCC1)(c1ccccc1)c1ccccc1` the T/C (dose: 6.25 mg/kg/injection, schedule: Q01DX009 (ip), vehicle: saline with Tween-80) was 105 % of control, the T/C (dose: 12.5 mg/kg/injection, schedule: Q01DX009 (ip), vehicle: saline with Tween-80) was 100 % of control and the T/C (dose: 25.0 mg/kg/injection, schedule: Q01DX009 (ip), vehicle: saline with Tween-80) was 113 % of control.

`Clc1ccc2c3c(cccc13)CC2` was tested, and the T/C (dose: 5.0 mg/kg/injection, schedule: Q01DX009 (ip), vehicle: saline with Tween-80) was 87 % of control, the T/C (dose: 10.0 mg/kg/injection, schedule: Q01DX009 (ip), vehicle: saline with Tween-80) was 92 % of control and the T/C (dose: 20.0 mg/kg/injection, schedule: Q01DX009 (ip), vehicle: saline with Tween-80) was 87 % of control. The T/C (dose: 40.0 mg/kg/injection, schedule: Q01DX009 (ip), vehicle: saline with Tween-80) was 87 % of control.

With `O=C(O)c1ccc(O)c([N+](=O)[O-])c1` the T/C (dose: 100.0 mg/kg/injection, schedule: Q01DX009 (ip), vehicle: saline) was 115 % of control and the T/C (dose: 200.0 mg/kg/injection, schedule: Q01DX009 (ip), vehicle: saline) was 87 % of control.

With `CCC/C=C(/CC(=O)O)C(=O)O` the T/C (dose: 75.0 mg/kg/injection, schedule: Q04DX003 (ip), vehicle: saline with Tween-80) was 100 % of control.

In the case of `O=CNC(CSC(c1ccccc1)c1ccccc1)C(=O)O` (configuration not stated), the T/C (dose: 50.0 mg/kg/injection, schedule: Q04DX003 (ip), vehicle: Klucel (hydroxypropylcellulose) (HPC)) is reported as 105 % of control, the T/C [6] is reported as 100 % of control and the T/C [7] is reported as 94 % of control.

With `CCCCNc1cc(Nc2ccc(Br)cc2)nc(N)n1` the T/C (dose: 50.0 mg/kg/injection, schedule: Q01DX009 (ip), vehicle: saline with Tween-80) was 95 % of control and the T/C (dose: 100.0 mg/kg/injection, schedule: Q01DX009 (ip), vehicle: saline with Tween-80) was 91 % of control.

`O=C1C=C(C2OC(CO)C(O)C2O)C(=O)N1` (configuration not stated) was tested, and the T/C [8] was 107 % of control and the T/C [9] was 99 % of control and 102 % of control.

`COc1ccc(NC(=S)Nc2ccc(OC)cc2)cc1` was tested, and the T/C [2] was 106 % of control, the T/C [3] was 96 % of control and the T/C [10] was 93 % of control.

In the case of `CCCCCCCCCCCCCCCCP(=O)(OCCOCCCCCC)OCCOCCCCCC`, the T/C [5] is reported as 103 % of control, the T/C [11] is reported as 116 % of control and the T/C (dose: 12.5 mg/kg/injection, schedule: Q01DX009 (ip), vehicle: saline) is reported as 109 % of control. The T/C (dose: 25.0 mg/kg/injection, schedule: Q01DX009 (ip), vehicle: saline) was 102 % of control and the T/C (dose: 50.0 mg/kg/injection, schedule: Q01DX009 (ip), vehicle: saline) was 94 % of control.

With `CC(=O)CC(C)=O.CC(=O)CC(C)=O.CC(=O)CC(C)=O.[V]` the T/C (dose: 3.13 mg/kg/injection, schedule: Q01DX009 (ip), vehicle: saline) was 88 % of control and the T/C [11] was 89 % of control.

For `O=C1C=CC(=O)c2c(O)c(CBr)c(CBr)c(O)c21`, the T/C [8] was 102 % of control, the T/C [9] was 101 % of control and the T/C [4] was 100 % of control. For the same molecule, the T/C [1] was 94 % of control.

`Nc1ccnc(=O)[nH]1` was tested, and the T/C (dose: 32.0 mg/kg/injection, schedule: Q01DX009 (ip), vehicle: Klucel (hydroxypropylcellulose) (HPC)) was 98 % of control and 102 % of control, the T/C (dose: 32.0 mg/kg/injection, schedule: Q01DX009 (ip), vehicle: saline with Tween-80) was 113 % of control and the T/C (dose: 32.0 mg/kg/injection, schedule: Q01DX009 (ip), vehicle: saline) was 104 % of control. The T/C (dose: 64.0 mg/kg/injection, schedule: Q01DX009 (ip), vehicle: Klucel (hydroxypropylcellulose) (HPC)) was 101 % of control and 106 % of control, the T/C (dose: 64.0 mg/kg/injection, schedule: Q01DX009 (ip), vehicle: saline with Tween-80) was 97 % of control and the T/C (dose: 64.0 mg/kg/injection, schedule: Q01DX009 (ip), vehicle: saline) was 110 % of control. The T/C (dose: 128.0 mg/kg/injection, schedule: Q01DX009 (ip), vehicle: Klucel (hydroxypropylcellulose) (HPC)) was 103 % of control and 113 % of control, the T/C (dose: 128.0 mg/kg/injection, schedule: Q01DX009 (ip), vehicle: saline with Tween-80) was 103 % of control and the T/C (dose: 128.0 mg/kg/injection, schedule: Q01DX009 (ip), vehicle: saline) was 119 % of control. The T/C (dose: 256.0 mg/kg/injection, schedule: Q01DX009 (ip), vehicle: Klucel (hydroxypropylcellulose) (HPC)) was 94 % of control and 103 % of control, the T/C (dose: 256.0 mg/kg/injection, schedule: Q01DX009 (ip), vehicle: saline) was 105 % of control and the T/C (dose: 512.0 mg/kg/injection, schedule: Q01DX009 (ip), vehicle: Klucel (hydroxypropylcellulose) (HPC)) was 100 % of control and 102 % of control. For the same molecule, the T/C (dose: 512.0 mg/kg/injection, schedule: Q01DX009 (ip), vehicle: saline with Tween-80) was 111 % of control and the T/C (dose: 512.0 mg/kg/injection, schedule: Q01DX009 (ip), vehicle: saline) was 110 % of control.

In the case of `O=[N+]([O-])c1ccc(C(O)CC(O)(C(F)(F)F)C(F)(F)F)cc1` (configuration not stated), the T/C [6] is reported as 97 % of control, the T/C [7] is reported as 97 % of control and the T/C (dose: 400.0 mg/kg/injection, schedule: Q04DX003 (ip), vehicle: Klucel (hydroxypropylcellulose) (HPC)) is reported as 95 % of control.

In the case of `c1ccc(-c2cnoc2-c2ccccc2)cc1`, the T/C [1] is reported as 100 % of control, the T/C [2] is reported as 107 % of control and the T/C [3] is reported as 100 % of control.

With `CCC1=C[C@H]2CN(CCc3c([nH]c4ccccc34)[C@@](C(=O)OC)(c3cc4c(cc3OC)N(C)[C@H]3[C@@](O)(C(=O)NC)[C@H](OC(C)=O)[C@]5(CC)C=CCN6CC[C@]43[C@@H]65)C2)C1` the T/C (dose: 0.05 mg/kg/injection, schedule: Q01DX009 (ip), vehicle: Klucel (hydroxypropylcellulose) (HPC)) was 119 % of control, the T/C (dose: 0.06 mg/kg/injection, schedule: Q01DX009 (ip), vehicle: water) was 156 % of control and the T/C (dose: 0.1 mg/kg/injection, schedule: Q01DX009 (ip), vehicle: Klucel (hydroxypropylcellulose) (HPC)) was 113 % of control. The T/C (dose: 0.12 mg/kg/injection, schedule: Q01DX009 (ip), vehicle: water) was 160 % of control and 183 % of control, the T/C (dose: 0.12 mg/kg/injection, schedule: Q04DX003 (ip), vehicle: water) was 123 % of control and the T/C (dose: 0.2 mg/kg/injection, schedule: Q01DX009 (ip), vehicle: Klucel (hydroxypropylcellulose) (HPC)) was 124 % of control. For the same molecule, the T/C (dose: 0.25 mg/kg/injection, schedule: Q01DX009 (ip), vehicle: water) was 181 % of control and 220 % of control, the T/C (dose: 0.5 mg/kg/injection, schedule: Q01DX009 (ip), vehicle: water) was 157 % of control and the T/C (dose: 0.5 mg/kg/injection, schedule: Q04DX003 (ip), vehicle: water) was 156 % of control. The T/C (dose: 1.6 mg/kg/injection, schedule: Q01DX009 (ip), vehicle: Klucel (hydroxypropylcellulose) (HPC)) was 181 % of control.

With `CC[S][Hg][Cl]` the T/C (dose: 0.75 mg/kg/injection, schedule: Q04DX003 (ip), vehicle: saline with Tween-80) was 93 % of control, the T/C (dose: 1.5 mg/kg/injection, schedule: Q04DX003 (ip), vehicle: saline with Tween-80) was 100 % of control and the T/C (dose: 3.0 mg/kg/injection, schedule: Q04DX003 (ip), vehicle: saline with Tween-80) was 97 % of control. For the same molecule, the T/C (dose: 6.25 mg/kg/injection, schedule: Q04DX003 (ip), vehicle: saline with Tween-80) was 86 % of control.

For `O=C1CC(c2ccc(O)cc2)CC(=O)C1C(C1CC=CCC1)N(CCCl)CCCl` (configuration not stated), the T/C [4] was 88 % of control, the T/C [1] was 95 % of control and the T/C [2] was 90 % of control. The T/C [3] was 92 % of control and the T/C [10] was 97 % of control.

`O=c1oc2ccccc2c(O)c1C(c1ccc(C(c2c(O)c3ccccc3oc2=O)c2c(O)c3ccccc3oc2=O)cc1)c1c(O)c2ccccc2oc1=O` was tested, and the T/C [1] was 103 % of control, the T/C [2] was 100 % of control and the T/C [3] was 93 % of control.
